For 6 cell lines, relative viability results are on record in the supplement of paper PMC10307832.

Common to all, as to experiment: relative viability (nuclei count vs DMSO), 5 days (fraction); higher = more cells survive
Compound in test [1]: Cc1ccc2nc(NCCN)c3ncc(C)n3c2c1 + CS(=O)(=O)CCNCc1ccc(-c2ccc3ncnc(Nc4ccc(OCc5cccc(F)c5)c(Cl)c4)c3c2)o1 [Lapatinib] (partner 2 µM)
The method, boiled down: (§1)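 Lung cancer cell lines were seeded in 1536-well plates and dosed by pin tool the next day, with either a single drug or a fixed anchor-drug dose combined with five library-drug doses (not always all listed) spaced in √10 steps. Five days later, one step fixed the cells and stained their nuclei (final 0.05% Triton X-100, 1% formaldehyde, 1 ug/ml Hoechst), and nuclei were counted on 4× images. Relative viability is the nuclei count in treated wells divided by the count in vehicle wells, and each value is the median of duplicate plates.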

Compound in test [2]: Cc1ccc2nc(NCCN)c3ncc(C)n3c2c1 + Cc1nc(Nc2ncc(C(=O)Nc3c(C)cccc3Cl)s2)cc(N2CCN(CCO)CC2)n1 [Dasatinib] (partner 0.075 µM)
The procedure, abridged: as §1

Compound in the test “Salubrinal + Crizotinib”: O=C(/C=C/c1ccccc1)NC(NC(=S)Nc1cccc2cccnc12)C(Cl)(Cl)Cl [Salubrinal] + C[C@@H](Oc1cc(-c2cnn(C3CCNCC3)c2)cnc1N)c1c(Cl)ccc(F)c1Cl [Crizotinib] (partner 1 µM)
The method, boiled down: as §1

Compound in the test “Salubrinal + Olaparib”: O=C(/C=C/c1ccccc1)NC(NC(=S)Nc1cccc2cccnc12)C(Cl)(Cl)Cl [Salubrinal] + O=C(c1cc(Cc2n[nH]c(=O)c3ccccc23)ccc1F)N1CCN(C(=O)C2CC2)CC1 [Olaparib] (partner 8 µM)
The procedure, abridged:
as §1

As to NCI-H23, the relative viability in test [1] (first compound 0.04 µM) came to 1.09; in test [1] (first compound 0.1265 µM), 1.12; in test [1] (first compound 0.4 µM), 1.19; in test [1] (first compound 1.265 µM), 1.15; in test [1] (first compound 4 µM), 0.937; in test [2] (first compound 0.04 µM), 0.934. Also, the relative viability amounted to 0.798 in test [2] (first compound 0.1265 µM); 0.73 in test [2] (first compound 0.4 µM); 0.779 in test [2] (first compound 1.265 µM); 0.728 in test [2] (first compound 4 µM); 0.559 with Salubrinal + Crizotinib (first compound 0.08 µM); 0.391 with Salubrinal + Crizotinib (first compound 0.253 µM). In addition, the relative viability was found to be 0.621 with Salubrinal + Crizotinib (first compound 0.8 µM); 0.461 in the test with Salubrinal + Crizotinib (first compound 2.53 µM); 0.354 in the test with Salubrinal + Crizotinib (first compound 8 µM); 0.359 with Salubrinal + Olaparib (first compound 0.08 µM); 0.233 with Salubrinal + Olaparib (first compound 0.253 µM); 0.36 in the test with Salubrinal + Olaparib (first compound 0.8 µM). Also, the figures for the relative viability with Salubrinal + Olaparib (first compound 2.53 µM) and with Salubrinal + Olaparib (first compound 8 µM) were 0.31 and 0.309, respectively.
Take LOU-NH91: the relative viability in test [1] (first compound 0.04 µM) was determined as 0.784; in test [1] (first compound 0.1265 µM) it was 0.846; in test [1] (first compound 0.4 µM), 0.782; in test [1] (first compound 1.265 µM), 0.777; in test [1] (first compound 4 µM), 0.766; in test [2] (first compound 0.04 µM), 0.562. Moreover, the relative viability in test [2] (first compound 0.1265 µM) was 0.547; in test [2] (first compound 0.4 µM), 0.531; in test [2] (first compound 1.265 µM) it was 0.539; in test [2] (first compound 4 µM), 0.559; with Salubrinal + Crizotinib (first compound 0.08 µM) it was 0.787; in the test with Salubrinal + Crizotinib (first compound 0.253 µM), 0.747. The relative viability came out at 0.74 with Salubrinal + Crizotinib (first compound 0.8 µM); 0.756 with Salubrinal + Crizotinib (first compound 2.53 µM); 0.75 with Salubrinal + Crizotinib (first compound 8 µM); 0.967 with Salubrinal + Olaparib (first compound 0.08 µM); 0.908 with Salubrinal + Olaparib (first compound 0.253 µM); 0.897 in the test with Salubrinal + Olaparib (first compound 0.8 µM). The figures for the relative viability in the test with Salubrinal + Olaparib (first compound 2.53 µM) and in the test with Salubrinal + Olaparib (first compound 8 µM) were 0.9 and 0.961, respectively.
For NCI-H2085, the relative viability worked out at 0.91 in test [1] (first compound 0.04 µM); 0.771 in test [1] (first compound 0.1265 µM); 0.728 in test [1] (first compound 0.4 µM); 0.785 in test [1] (first compound 1.265 µM); 0.817 in test [1] (first compound 4 µM); 0.207 in test [2] (first compound 0.04 µM). Besides, the relative viability in test [2] (first compound 0.1265 µM) is 0.263; in test [2] (first compound 0.4 µM) it was 0.222; in test [2] (first compound 1.265 µM), 0.196; in test [2] (first compound 4 µM) it was 0.243; with Salubrinal + Crizotinib (first compound 0.08 µM), 0.901; in the test with Salubrinal + Crizotinib (first compound 0.253 µM), 0.804. Besides, the relative viability with Salubrinal + Crizotinib (first compound 0.8 µM) worked out at 0.789; in the test with Salubrinal + Crizotinib (first compound 2.53 µM) it was 0.813; in the test with Salubrinal + Crizotinib (first compound 8 µM), 0.834; with Salubrinal + Olaparib (first compound 0.08 µM), 0.804; with Salubrinal + Olaparib (first compound 0.253 µM), 0.742; in the test with Salubrinal + Olaparib (first compound 0.8 µM) it was 0.765. Also, the results for the relative viability in the test with Salubrinal + Olaparib (first compound 2.53 µM) and in the test with Salubrinal + Olaparib (first compound 8 µM) were 0.76 and 0.745, respectively.
In the case of COR-L23, the relative viability was determined as 1.27 in test [1] (first compound 0.04 µM); 0.874 in test [1] (first compound 0.1265 µM); 0.924 in test [1] (first compound 0.4 µM); 0.837 in test [1] (first compound 1.265 µM); 0.853 in test [1] (first compound 4 µM); 0.525 in test [2] (first compound 0.04 µM). Also, the relative viability is 0.514 in test [2] (first compound 0.1265 µM); 0.518 in test [2] (first compound 0.4 µM); 0.46 in test [2] (first compound 1.265 µM); 0.403 in test [2] (first compound 4 µM); 0.749 with Salubrinal + Crizotinib (first compound 0.08 µM); 0.775 with Salubrinal + Crizotinib (first compound 0.253 µM). Also, the relative viability with Salubrinal + Crizotinib (first compound 0.8 µM) stood at 0.699; with Salubrinal + Crizotinib (first compound 2.53 µM) it was 0.563; in the test with Salubrinal + Crizotinib (first compound 8 µM) it was 0.492; with Salubrinal + Olaparib (first compound 0.08 µM) it was 0.392; with Salubrinal + Olaparib (first compound 0.253 µM), 0.323; in the test with Salubrinal + Olaparib (first compound 0.8 µM), 0.355. Further, the values for the relative viability in the test with Salubrinal + Olaparib (first compound 2.53 µM) and with Salubrinal + Olaparib (first compound 8 µM) were 0.315 and 0.325, respectively.
In the case of BEN, the relative viability stood at 0.894 in test [1] (first compound 0.04 µM); 0.6 in test [1] (first compound 0.1265 µM); 0.827 in test [1] (first compound 0.4 µM); 0.77 in test [1] (first compound 1.265 µM); 0.709 in test [1] (first compound 4 µM); 0.329 in test [2] (first compound 0.04 µM). Further, the relative viability in test [2] (first compound 0.1265 µM) worked out at 0.291; in test [2] (first compound 0.4 µM), 0.27; in test [2] (first compound 1.265 µM) it was 0.363; in test [2] (first compound 4 µM) it was 0.374; with Salubrinal + Crizotinib (first compound 0.08 µM) it was 1.02; with Salubrinal + Crizotinib (first compound 0.253 µM), 0.734. Moreover, the relative viability was 0.996 in the test with Salubrinal + Crizotinib (first compound 0.8 µM); 0.858 in the test with Salubrinal + Crizotinib (first compound 2.53 µM); 0.852 with Salubrinal + Crizotinib (first compound 8 µM); 1.33 with Salubrinal + Olaparib (first compound 0.08 µM); 0.935 in the test with Salubrinal + Olaparib (first compound 0.253 µM); 1.16 in the test with Salubrinal + Olaparib (first compound 0.8 µM). Moreover, the relative viability with Salubrinal + Olaparib (first compound 2.53 µM) stood at 1.04; in the test with Salubrinal + Olaparib (first compound 8 µM), 0.943.
For LK-2, the relative viability in test [1] (first compound 0.04 µM) amounted to 0.961; in test [1] (first compound 0.1265 µM) it was 0.879; in test [1] (first compound 0.4 µM), 0.823; in test [1] (first compound 1.265 µM), 0.748; in test [1] (first compound 4 µM), 0.761; in test [2] (first compound 0.04 µM), 0.251. For the same cell line, the relative viability in test [2] (first compound 0.1265 µM) was found to be 0.223; in test [2] (first compound 0.4 µM) it was 0.27; in test [2] (first compound 1.265 µM), 0.229; in test [2] (first compound 4 µM), 0.268; with Salubrinal + Crizotinib (first compound 0.08 µM) it was 0.249; with Salubrinal + Crizotinib (first compound 0.253 µM), 0.252. Besides, the relative viability with Salubrinal + Crizotinib (first compound 0.8 µM) came out at 0.247; with Salubrinal + Crizotinib (first compound 2.53 µM), 0.218; in the test with Salubrinal + Crizotinib (first compound 8 µM), 0.23; in the test with Salubrinal + Olaparib (first compound 0.08 µM), 0.873; in the test with Salubrinal + Olaparib (first compound 0.253 µM), 0.659; in the test with Salubrinal + Olaparib (first compound 0.8 µM) it was 0.877. The relative viability with Salubrinal + Olaparib (first compound 2.53 µM) amounted to 0.773; with Salubrinal + Olaparib (first compound 8 µM), 0.694.
